Data as given in US20190062322A1, “PUMA INHIBITOR, METHOD FOR PREPARATION THEREOF, AND USE THEREOF” (FOURTH MILITARY MEDICAL UNIVERSITY, priority 2016, published 2019).

Target: Mcl-1 (Homo sapiens, UniProt Q07820)
Assay: FPA competition assay, inhibition of Mcl-1 / FITC-Mcl-BH3 binding
Conditions: 250 nM Mcl-1 and 250 nM FITC-Mcl-BH3 probe, pH 7.5, cells printed in nM
Source text: Experiment 1 the Inhibition Assay of Compounds 1˜12 to Mcl-1
FPA competition assays were adopted to evaluate the binding affinity of compounds to Mcl-1. The FITC labelled BH3 peptide of Mcl-1 (FITC-Mcl-BH3, FITC-AHx-KALETLRRVGD GVQRNHITAF-NH2) was synthesized and used as fluorescence probe in the FPA competition assays. The binding of FITC-Mcl-BH3 and Mcl-1 can enhance the polarized light. While the binding of compounds and Mcl-1 would reduce the polarization, IC50 is the compound concentration that displaces 50% of the fluorescent ligand from the ligand-receptor complex.
All assays were performed in the assay buffer (pH 7.5) composed of 20 mM Tris, 50 mM NaCl, 3 mM DTT and 2% DMSO. The FPA competition assays were carried out in the 96-well, black, flat-bottom plates (Nunc). To check the interference effects of candidate compounds on the interaction between Mcl-1 and FITC-Mcl-BH3, solutions containing 250 nM Mcl-1 and 250 nM fluorescence probes were titrated with […] selected compounds (0-128 μM, 2-times gradient) dissolved in the assay buffer. The emission fluorescence changes were recorded from 480 to 540 nm by TECAN Infinite M1000 Microplate Spectrophotometer with excitation wavelength being 450 nm. The IC50 were calculated.

Chain of Mcl-1 (Q07820 whole entry, species assumed): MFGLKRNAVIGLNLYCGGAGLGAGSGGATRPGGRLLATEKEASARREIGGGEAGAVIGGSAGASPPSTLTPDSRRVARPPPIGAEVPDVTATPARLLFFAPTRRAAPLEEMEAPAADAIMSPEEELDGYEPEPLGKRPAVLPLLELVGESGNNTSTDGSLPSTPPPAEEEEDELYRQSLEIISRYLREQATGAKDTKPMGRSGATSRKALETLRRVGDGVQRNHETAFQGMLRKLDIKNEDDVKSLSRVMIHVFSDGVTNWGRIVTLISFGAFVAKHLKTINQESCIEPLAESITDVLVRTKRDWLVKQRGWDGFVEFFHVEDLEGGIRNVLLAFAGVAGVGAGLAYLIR

SMILES	IC50 [nM]
O=C1N=C(N2CCC(CCO)CC2)SC1=Cc1ccccc1 [Compound 8]	589
Cc1ccc(C=C2SC(N3CCN(CCO)CC3)=NC2=O)cc1 [Compound 3]	401
COc1ccc(/C=C2\SC(N3CCN(CCO)CC3)=NC2=O)cc1 [Compound 4]	161
O=C1N=C(N2CCN(CCO)CC2)S/C1=C\c1ccc(Cl)cc1 [Compound 5]	89.7
COc1ccc(C=C2SC(N3CCC(CCO)CC3)=NC2=O)cc1 [Compound 11]	52.1
O=C1N=C(N2CCC(CCO)CC2)SC1=Cc1ccc(Cl)cc1 [Compound 12]	369
